Experimental data published in patent US20250129092A1, “COMPOUNDS USEFUL IN MODULATION OF AHR SIGNALLING” (JAGUAHR THERAPEUTICS PTE LTD, priority 2021, published 2025).

Tests used:
AhR [1] = molecular target: T1, AhR (Homo sapiens, UniProt P35869); test: AhR antagonism in human PBMCs - inhibition of IL-22 release; assay type: cell-based; parameters: endogenous in cells; conditions: human PBMCs activated with CD3/CD28 agonist mixture, 72 hrs, IL-22 ELISA; average; read-out: hPBMC Inhibition of CD3/CD28 induced IL-22 release: av. pIC50 (converted)
T1 sequence (P35869 11-848): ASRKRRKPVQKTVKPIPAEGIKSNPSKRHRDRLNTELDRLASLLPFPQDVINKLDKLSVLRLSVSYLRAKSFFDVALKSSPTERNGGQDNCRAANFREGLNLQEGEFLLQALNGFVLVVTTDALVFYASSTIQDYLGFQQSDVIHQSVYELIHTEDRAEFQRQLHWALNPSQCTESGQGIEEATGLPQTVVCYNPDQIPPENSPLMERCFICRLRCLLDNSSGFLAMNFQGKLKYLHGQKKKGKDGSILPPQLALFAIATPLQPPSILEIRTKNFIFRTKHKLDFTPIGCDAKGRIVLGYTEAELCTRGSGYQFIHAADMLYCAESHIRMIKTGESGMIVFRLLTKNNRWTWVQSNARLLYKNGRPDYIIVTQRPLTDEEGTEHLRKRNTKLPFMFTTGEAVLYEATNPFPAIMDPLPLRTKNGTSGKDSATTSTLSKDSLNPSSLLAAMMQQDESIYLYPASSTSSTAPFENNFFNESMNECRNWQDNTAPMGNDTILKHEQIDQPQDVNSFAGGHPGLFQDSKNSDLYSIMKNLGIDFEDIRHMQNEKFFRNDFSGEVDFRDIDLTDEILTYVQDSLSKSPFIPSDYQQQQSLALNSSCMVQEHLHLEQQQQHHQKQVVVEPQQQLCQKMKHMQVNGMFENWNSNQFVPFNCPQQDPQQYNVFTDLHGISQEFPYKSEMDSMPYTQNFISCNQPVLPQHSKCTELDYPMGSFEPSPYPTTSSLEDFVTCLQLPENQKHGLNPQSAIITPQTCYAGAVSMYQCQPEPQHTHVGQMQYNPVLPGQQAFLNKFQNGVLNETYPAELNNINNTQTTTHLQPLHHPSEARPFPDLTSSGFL
Excerpt: In Vitro Assay 3: AhR Antagonism in Human Peripheral Blood Mononuclear Cells (PBMCs)-Inhibition of Interleukin-22 (IL-22) Release.
PBMCs were isolated from human peripheral blood using Lymphoprep™ and diluted to 1×10^6 cells per ml in RPMI media containing […] foetal bovine serum, 1% penicillin-streptomycin and 1% non essential amino acids. PBMCs were subsequently activated with 1p1 per 100,000 cells of a CD3/CD28 agonist mixture (human T Cell TransAct™ (Miltenyi Biotec)) and then plated at 100,000 cells per well in a round bottom 96 well tissue culture plate. One hour after stimulation seven concentrations of each test compound or vehicle (final [DMSO] 0.2%) were added. The plates were then placed in an incubator at 37° C., ≥85% humidity, 5% […] for 72 hrs before the media was removed and stored at −20° C. until cytokine analysis. IL-22 was measured using human IL-22 DuoSet ELISA (R&D systems) according to the manufacturer's instructions.

AhR [2] = molecular target: T1, AhR; test: AhR antagonism in U937 cells (Promega P450-Glo assay); assay type: cell-based; parameters: endogenous in cells; host or cells: U937 cells; conditions: CYP1A1 activity readout (Luciferin-CEE), head names VAF347, average, read-out: U937 Antagonist pIC50-VAF347: av. pIC50 (converted)
Experimental: In Vitro Assay 1: AhR Antagonism in U937 Cells (Promega P450-Glo™ Assay)
AhR antagonism was assessed in LJ937 cells (myeloid lineage cell line derived from a human histiocytic lymphoma). Ligand binds the AhR in the cytoplasm, and the AhR-ligand complex translocates to the nucleus and forms a heterodimer with AhR nuclear translocator (Arnt). This complex binds the xenobiotic response element (XRE) in the 5′ upstream region of the CYP1A1 promoter, enhancing CYP1A1 expression. CYP1A1 activity is subsequently determined by assessing the conversion of Luciferin-CEE to luciferin, which in turn reacts with luciferase to produce light. The amount of light produced is directly proportional to cytochrome P450 activity. U937 cells in Ultraculture serum free media (Lonza) were plated at 100,000 cells per well in a round bottom 96 well tissue culture plate. […] The plates were then placed in an incubator at 37° C., ≥85% humidity, 5% CO2 for 24 hrs. After aspiration of the supernatant the CYP1A1 substrate Luciferin-CEE ([Final] 83 μM) was added and incubated for 3 hrs before the reaction was stopped by adding luciferin detection reagent and luminescence was read after 20 minutes.

Compound	IC50 (AhR [1]) [nM]	IC50 (AhR [2]) [nM]
Cc1ncc(-c2nc3c(c(NC4Cc5cccc6[nH]cc(c56)C4)n2)OCCN3)s1 (stereo not drawn) [Example 14, 2-(2-methylthiazol-5-yl)-N-(1,3,4,5-tetrahydrobenzo[cd]indol-4-yl)-7,8-dihydro-6H-pyrimido[5,4-b][1,4]oxazin-4-amine]	100	74.1
O=c1[nH]cccc1-c1nc2c(c(NCCc3c[nH]c4ccccc34)n1)OCCN2 [Example 17, 3-[4-[2-(1H-indol-3-yl)ethylamino]-7,8-dihydro-6H-pyrimido[5,4-b][1,4]oxazin-2-yl]-1H-pyridin-2-one]	1.66	3.8
Cn1cccc(-c2nc3c(c(NCCc4c[nH]c5ccccc45)n2)OCCN3)c1=O [Example 19, 3-[4-[2-(1H-indol-3-yl)ethylamino]-7,8-dihydro-6H-pyrimido[5,4-b][1,4]oxazin-2-yl]-1-methyl-pyridin-2-one]	24.5	51.3
Cc1ccc(-c2nc3c(c(NCCc4c[nH]c5cc(F)ccc45)n2)OCCN3)cn1 [Example 20, N-[2-(6-fluoro-1H-indol-3-yl)ethyl]-2-(6-methyl-3-pyridyl)-7,8-dihydro-6H-pyrimido[5,4-b][1,4]oxazin-4-amine]	43.7	91.2
O=c1[nH]cccc1-c1nc2c(c(NCCc3c[nH]c4cc(F)ccc34)n1)OCCN2 [Example 21, 3-[4-[2-(6-fluoro-1H-indol-3-yl)ethylamino]-7,8-dihydro-6H-pyrimido[5,4-b][1,4]oxazin-2-yl]-1H-pyridin-2-one]	1.45	2.75
FC(F)Oc1ncccc1-c1nc2c(c(NCCc3c[nH]c4ccccc34)n1)OCCN2 [Example 22, 2-[2-(difluoromethoxy)-3-pyridyl]-N-[2-(1H-indol-3-yl)ethyl]-7,8-dihydro-6H-pyrimido[5,4-b][1,4]oxazin-4-amine]	> 2000	123
Cc1ncc(-c2nc3c(c(OCCc4c[nH]c5cc(F)ccc45)n2)OCCN3)s1 [Example 24, 4-[2-(6-fluoro-1H-indol-3-yl)ethoxy]-2-(2-methylthiazol-5-yl)-7,8-dihydro-6H-pyrimido[5,4-b][1,4]oxazine]	2.88	2.63
COC[C@@H]1COc2c(NCCc3c[nH]c4ccccc34)nc(-c3ccc[nH]c3=O)nc2N1 [Example 26, (R)-3-(4-((2-(1H-indol-3-yl)ethyl)amino)-7-(methoxymethyl)-7,8-dihydro-6H-pyrimido[5,4-b][1,4]oxazin-2-yl)pyridin-2(1H)-one]	0.724	4.79
O=c1[nH]cccc1-c1nc(NCCc2c[nH]c3ccccc23)c2c(n1)N[C@H](CO)CO2 [Example 27, (R)-3-(4-((2-(1H-indol-3-yl)ethyl)amino)-7-(hydroxymethyl)-7,8-dihydro-6H-pyrimido[5,4-b][1,4]oxazin-2-yl)pyridin-2 (1H)-one]	2.14	4.9
COC[C@H]1COc2c(NCCc3c[nH]c4ccccc34)nc(-c3cncc(F)c3)nc2N1 [Example 28, (7S)-2-(5-fluoro-3-pyridyl)-N-[2-(1H-indol-3-yl)ethyl]-7-(methoxymethyl)-7,8-dihydro-6H-pyrimido[5,4-b][1,4]oxazin-4-amine]	0.617	0.513
C[C@H]1CNc2nc(-c3cncc(F)c3)nc(NCCc3c[nH]c4ccccc34)c2O1 [Example 29, (6S)-2-(5-fluoro-3-pyridyl)-N-[2-(1H-indol-3-yl)ethyl]-6-methyl-7,8-dihydro-6H-pyrimido[5,4-b][1,4]oxazin-4-amine]	3.02	2.19
C[C@@H]1CNc2nc(-c3cncc(F)c3)nc(NCCc3c[nH]c4ccccc34)c2O1 [Example 30, (6R)-2-(5-fluoro-3-pyridyl)-N-[2-(1H-indol-3-yl)ethyl]-6-methyl-7,8-dihydro-6H-pyrimido[5,4-b][1,4]oxazin-4-amine]	3.98	5.5
Fc1cncc(-c2nc(NCCc3c[nH]c4ccccc34)c3c(n2)N[C@@H](C(F)(F)F)CO3)c1 [Example 32, (7R)-2-(5-fluoro-3-pyridyl)-N-[2-(1H-indol-3-yl)ethyl]-7-(trifluoromethyl)-7,8-dihydro-6H-pyrimido[5,4-b][1,4]oxazin-4-amine]	14.5	2.51
Cc1ncc(-c2nc(NCCc3c[nH]c4ccccc34)c3c(n2)N(C2COC2)CCO3)s1 [Example 33, N-[2-(1H-indol-3-yl)ethyl]-2-(2-methylthiazol-5-yl)-8-(oxetan-3-yl)-6,7-dihydropyrimido[5,4-b][1,4]oxazin-4-amine]	13.5	14.1
Cc1ncc(-c2nc3c(c(NC4CCc5[nH]c6cccnc6c5C4)n2)OCCN3)s1 (stereo not drawn) [Example 34, 2-(2-methylthiazol-5-yl)-N-(6,7,8,9-tetrahydro-5H-pyrido[3,2-b]indol-8-yl)-7,8-dihydro-6H-pyrimido[5,4-b][1,4]oxazin-4-amine]	> 2000	> 759
COC[C@@H]1COc2c(N[C@@H]3CCc4[nH]c5ccccc5c4C3)nc(-c3cnc(C)s3)nc2N1CCN(C)C [Example 35, (7R)-8-[2-(dimethylamino)ethyl]-7-(methoxymethyl)-2-(2-methylthiazol-5-yl)-N-[(3R)-2,3,4,9-tetrahydro-1H-carbazol-3-yl]-6,7-dihydropyrimido[5,4-b][1,4]oxazin-4-amine]	977	> 1000
Cc1ncc(-c2nc(N[C@@H]3CCc4[nH]c5ccccc5c4C3)c3c(n2)N(CCN(C)C)[C@H](CO)CO3)s1 [Example 36, [(7R)-8-[2-(dimethylamino)ethyl]-2-(2-methylthiazol-5-yl)-4-[[(3R)-2,3,4,9-tetrahydro-1H-carbazol-3-yl]amino]-6,7-dihydropyrimido[5,4-b][1,4]oxazin-7-yl]methanol]	1070	> 1000
Cc1ncc(-c2nc(N[C@@H]3CCc4[nH]c5ccccc5c4C3)c3c(n2)N(CCO)CCO3)s1 [Example 37, 2-[2-(2-methylthiazol-5-yl)-4-[[(3R)-2,3,4,9-tetrahydro-1H-carbazol-3-yl]amino]-6,7-dihydropyrimido[5,4-b][1,4]oxazin-8-yl]ethanol]	123	251
CN1CCOc2c(NCCc3c[nH]c4ccccc34)nc(-c3ccc[nH]c3=O)nc21 [Example 44, 3-(4-((2-(1H-indol-3-yl)ethyl)amino)-8-methyl-7,8-dihydro-6H-pyrimido[5,4-b][1,4]oxazin-2-yl)pyridin-2 (1H)-one]	< 1.55	10.2
COC[C@H]1COc2c(NCCc3c[nH]c4ccccc34)nc(-c3ccc[nH]c3=O)nc2N1 [Example 45, (S)-3-(4-((2-(1H-indol-3-yl)ethyl)amino)-7-(methoxymethyl)-7,8-dihydro-6H-pyrimido[5,4-b][1,4]oxazin-2-yl)pyridin-2(1H)-one]	< 1.02	3.8
COC[C@@H]1COc2c(NCCc3c[nH]c4ccccc34)nc(-c3cncc(F)c3)nc2N1 [Example 46, (7R)-2-(5-fluoro-3-pyridyl)-N-[2-(1H-indol-3-yl)ethyl]-7-(methoxymethyl)-7,8-dihydro-6H-pyrimido[5,4-b][1,4]oxazin-4-amine]	< 1.35	0.759
